According to PMC8891053 (Chemistry (Weinheim an der Bergstrasse, Germany), 2022):
Like-named read-outs stand apart in the source and are kept apart here.

Legend:
[1] = reported value, cited from earlier work
[2] = tested on: adenosine deaminase (ADA); assay: ADA-mediated deamination monitored by absorption and emission; type: biochemical
[3] = Abs: monitored by absorption, first order fit
[4] = Em: monitored by emission, first order fit

kapp [2, 3]	t1/2 [2, 3]	kapp [2, 4]	t1/2 [2, 4]	t1/2 ([2]; calculated from absorption spectroscopy data) [s]	t1/2 ([2]; calculated from changes in emission spectra) [s]	half-life ([2]; adenosine deaminase (ADA) enzyme reaction) [s]	SMILES	pKa ([1]; first pKa)	pKa ([1]; second pKa)
							O=c1ccn([C@@H]2O[C@H](CO)[C@@H](O)[C@H]2O)c(=O)[nH]1 [uridine]	9.20–9.25	
220 ± 10 × 10^−4 s^−1	0.32 ± 0.02 × 10^2 s	220 ± 10 × 10^−4 s^−1	0.31 ± 0.02 × 10^2 s	32 ± 2	31 ± 2		Nc1ncnc2c([C@@H]3O[C@H](CO)[C@@H](O)[C@H]3O)snc12 [^tzA]		
							Nc1nc2c(ncn2[C@@H]2O[C@H](CO)[C@@H](O)[C@H]2O)c(=O)[nH]1 [G, guanosine]	3.2–3.3	9.2–9.6
120 ± 10 × 10^−4 s^−1	0.57 ± 0.01 × 10^2 s					57	Nc1ncnc2c1ncn2[C@@H]1O[C@H](CO)[C@@H](O)[C@H]1O [A, adenosine]	3.6–4.2	
